In patent US10273279B2, “Protease activated receptor-1 (PAR1) derived cytoprotective polypeptides and related methods” (THE SCRIPPS RESEARCH INSTITUTE, priority 2011, dated 2019):

Experiments:
[1] = tested on: Akt phosphorylation at Ser473 in EA.hy.926 human endothelial cells; test: Akt Ser473 phosphorylation in EA.hy.926 endothelial cells (in-cell Western); format: cell-based; conditions: for Ser473-Akt phosphorylation (activation of Akt): Example 7, under the employed experimental conditions; for pSer473-Akt (Akt phosphorylation): 0, 5 or 30 min, TFLL 50 μM, NPND 250 μM, scr-NPND 250 μM
Source text: (§1) Activated Protein C (APC) cleaves a synthetic PAR1 tail peptide at Arg^41 and Arg^46; furthermore, APC cleaves SEAP-PAR1 mutants with the mutations R41A or R41Q but not SEAP-PAR1 with both R41Q/R46Q mutations. […] It was thus hypothesized that a new PAR1 N-terminus beginning at residue Asn-47 promotes PAR1 signaling and APC cytoprotective activities. Since phosphorylation of signaling network components is useful for monitoring activation of signaling pathways, the effects of synthetic PAR1 peptides on Akt and ERK1/2 phosphorylation in EA.hy.926 human endothelial cells were studied. Cells were treated for 0, 5 or 30 min with peptides prior to cell fixation, permeabilization of cells and subsequent immunoblotting analysis (“in-cell Western blotting”). Relative phosphorylation of Akt at Ser^473 (pSer^473-Akt) or of ERK1/2 at Thr202/204 (pERK1/2) in endothelial cells was quantified using the LI-COR Odyssey infrared (IR) fluorescence imaging system which permits “in cell” Western blots. The Odyssey permits simultaneous quantification of different antibodies that yield either red or green signals.
(§2) Methods: EA.hy.926 cells (ATCC: CRL-2922) were grown in black clear bottom 96 well plates (Nunc) in DMEM (Invitrogen #12430) supplemented with glutamax (Invitrogen #35050) and 10% FBS (Hyclone #35-011-CV) in a 37° C. cell incubator with a humidified atmosphere and 5% CO2 in air until confluency. Cells were treated for 0, 5 or 30 min with PAR1 peptides TFLL (50 μM), NPND (250 μM) or scr-NPND (250 μM) or with vehicle in serum free media. Subsequently cells were fixed with methanol free 4% para-formaldehyde (Pierce), washed with phosphate buffered saline (PBS; Invitrogen) containing 1% triton X-100 and blocked with Odyssey blocking buffer (Licor). Cells were incubated with rabbit anti-pT202/Y204 ERK1/2 (1/1000; Cell signaling D13.14.4E) or rabbit anti-pSer^473 (1/100; cell signaling D9E) with Odyssey blocking buffer. After washing with PBS/0.1% Tween (1/800), IRDye 800CW-labelled secondary goat anti-rabbit antibodies (Licor) were added to the cells in Odyssey blocking buffer and 1/10,000 Draq5 (Biostatus) for cell normalization. After final washing with PBS/0.1% Tween IR, the fluorescence of bound antibodies was determined using the Odyssey (Licor). Background fluorescence was determined by omitting the primary antibody and subtracting values for controls from all other observed values.

[2] = tested on: ERK1/2 phosphorylation in EAhy926 endothelial cells; test: ERK1/2 phosphorylation in EA.hy.926 endothelial cells, Western blot of lysates (LI-COR Odyssey); format: cell-based, human; conditions: 5 min; 10 nM APC or thrombin, 10 μM TFLL peptide, 50 μM TR47-66 or scr-TR47-66
Description: To assess whether PAR1 cleaved at Arg^46 would generate a PAR1 N-terminus that is capable of promoting PAR1 signaling, we studied the effects of synthetic peptides on ERK1/2 phosphorylation in EAhy926 endothelial cells. […] Relative phosphorylation of ERK1/2 was determined using the LI-COR Odyssey infrared imaging system which permits quantitative analysis over a wide dynamic range.
In this figure (left), anti-pT202Y204-ERK1/2 antibodies appear green while total anti-ERK1/2 antibodies appear red, and orange intensity reflects overlaps. […] The signal for phosphorylated ERK1/2 (green channel) was normalized to the signal for total ERK1/2 antigen (red channel) to quantify relative phosphorylation as a ratio, and the results are seen in the bar graph. […] The control scr-TR47-66 peptide (scrambled residues 47-66) caused no increase.
Methods: EA.hy.926 cells (ATCC; CRL-2922) were grown in 6-well plates in DMEM (Invitrogen #12430) supplemented with glutamax (Invitrogen #35050) and 10% FBS (Hyclone #35-011-CV) in a 37° C. cell incubator with a humidified atmosphere and 5% CO2 in air until confluency. […] Subsequently cells were resuspended in lysis buffer with protein and phosphatase inhibitors, cell lysates were applied to SDS-PAGE gel electrophoresis on 10% Bis-Tris gels with MOPS running buffer (Invitrogen) and transferred to PVDF membrane (Millipore) for Western blot analysis. Blots were blocked in Odyssey blocking buffer (Licor) and incubated with a combination of mouse anti-ERK1/2 (1/2000; Cell Signaling #3A7) and rabbit anti-pT202/204 ERK1/2 (1/1000; cell signaling #D13.14.4E) antibodies in Odyssey blocking buffer (Licor). After washing, blots were incubated with RDye680-labeled donkey anti-mouse (1/10,000; Licor) and IRDye800CW-labeled donkey anti-rabbit (1/10,000), washed again with PBS/0.1% Tween and IR fluorescence of bound antibodies was determined using the Odyssey (Licor).

[3] = tested on: ERK1/2 phosphorylation at Thr202/204 in EA.hy.926 human endothelial cells; test: ERK1/2 phosphorylation in EA.hy.926 endothelial cells (in-cell Western); format: cell-based; conditions: for activation of ERK1/2: Example 7; for ERK1/2 phosphorylation (pERK1/2): 0, 5 or 30 min, TFLL 50 μM, NPND 250 μM, scr-NPND 250 μM
Source text: as §1, §2

[4] = tested on: glycogen synthase kinase 3β (GSK3β) phosphorylation at Ser9; test: GSK3β Ser9 phosphorylation in endothelial cells; format: cell-based, human; conditions: for Ser9-GSK3β phosphorylation: Example 6
Description: To further confirm activation of Akt by the TR47-66 peptide, Akt-mediated inactivation of glycogen synthase kinase 3β (GSK3β) via phosphorylation at Ser9 was determined. GSK3β is a well-known downstream substrate for Akt.

Substance: APC: Activated Protein C, serine protease with anticoagulant and cytoprotective cell signaling activities
- Ser473-Akt phosphorylation (activation of Akt) [1]: robust activation of Akt
- increase in ERK1/2 phosphorylation (phospho/total ERK1/2 ratio) [2]: 1.5 fold
- activation of ERK1/2 [3]: transient but modest activation
- phosphorylation of GSK3β at Ser9 ([4]; Example 7): sustained phosphorylation

Substance: GDENENEKPNWYELKEPDSF (scrambled sequence) [scr-TR47-66, control scrambled TR47-66 peptide containing scrambled residues 47-66, reference compound]
- pSer473-Akt (Akt phosphorylation) [1]: essentially no effect
- increase in ERK1/2 phosphorylation (phospho/total ERK1/2 ratio) [2]: no increase
- ERK1/2 phosphorylation (pERK1/2) [3]: essentially no effect
- Ser9-GSK3β phosphorylation [4]: no phosphorylation

Substance: NPNDKYEPFWEDEEKNESGL (listed as Homo sapiens) [TR47-66]
- pSer473-Akt (Akt phosphorylation) [1]: increased Akt phosphorylation at Ser^47
- pSer473-Akt (Akt phosphorylation) ([1]; listed as NPND): time-dependent sustained increase
- Ser473-Akt phosphorylation (activation of Akt) [1]: induced activation of Akt
- Akt phosphorylation at Ser473 in the presence of the PAR1 inhibitor SCH79797 ([1]; with SCH79797): failed to induce Akt phosphorylation
- ERK1/2 phosphorylation (pERK1/2) [3]: essentially no effect
- activation of ERK1/2 [3]: failed to induce any noticeable activation
- Ser9-GSK3β phosphorylation [4]: induced significant Ser9-GSK3β phosphorylation starting at 30 min

Substance: thrombin
- Ser473-Akt phosphorylation (activation of Akt) [1]: neither thrombin nor TRAP induced
- increase in ERK1/2 phosphorylation (phospho/total ERK1/2 ratio) [2]: 3 fold
